Holding throughout (test): Test A post-emergence
Design in all cases: key: 0 = no effect, 10 = maximum effect; letter = response symbol

The subject of assay [1] is barnyardgrass. The format is in vivo, Echinochloa crusgalli. Summed up: (§1)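 Seeds and tubers were treated preemergence in a growth medium with compound in a nonphytotoxic solvent, against untreated controls; emerged plants such as two-leaf barnyardgrass and five-leaf cotton were sprayed postemergence, against solvent-sprayed controls. After sixteen days in a greenhouse, response was rated visually from 0 to 10.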

Assay [2] concerns nutsedge. It counts as in vivo, Cyperus rotundus. Summed up:
as §1

For assay [3], the system named is cocklebur. The format is in vivo, Xanthium spp. The essentials: as §1
Assay [4] deals with crabgrass. It counts as in vivo, Digitaria spp. The essentials:
as §1

For assay [5], the system named is soybean. It counts as in vivo. Summed up: as §1
In assay [6] the test system is corn. It counts as in vivo. The essentials:
as §1

The subject of assay [7] is sorghum. It counts as in vivo. The essentials:
as §1

Assay [8] relates to rice. It counts as in vivo. Summed up:
as §1

Assay [9] relates to morningglory. It counts as in vivo, Ipomoea spp. The essentials:
as §1

In assay [10] the test system is cassia. The format is in vivo, Cassia tora. The essentials: as §1
Assay [11] concerns bush bean. It counts as in vivo, bush beans. To be noted: 0.4 kg/ha.
Assay [12] deals with wheat. The format is in vivo. Summed up:
as §1

Assay [13] deals with wild oats. The format is in vivo, Avena fatua. Summed up: as §1

Each structure is given as a SMILES string.

Drawing on patent publication US4383113A, “Agricultural sulfonamides” (E. I. Du Pont de Nemours and Company, priority 1981, dated 1983), this text covers response rating for 14 compounds.

As for `COC(=O)c1ccccc1S(=O)(=O)NC(=O)Nc1nc(OC)nc(OC)n1` [drawing 416], the response rating in assay [1] (0.4 kg/ha) is reported as 10C; in assay [2] (0.4 kg/ha), 9C; in [3] (0.4 kg/ha) it was 9C; in assay [4] (0.4 kg/ha), 9C; in assay [5] (0.4 kg/ha) it was 9C; in assay [6] (0.4 kg/ha) it was 10C. Also, the response rating is 9C in assay [7] (0.4 kg/ha); 10C in assay [8] (0.4 kg/ha); 10C in [9] (0.4 kg/ha); 9C in assay [10] (0.4 kg/ha); 9C in assay [11].
Consider `COC(=O)c1ccccc1S(=O)(=O)NC(=O)Nc1nnc(C)c(C)n1` [drawing 417], for which the response rating came out at 9C in assay [1] (2 kg/ha); 9C in assay [2] (2 kg/ha); 9C in assay [3] (2 kg/ha); 9C in [4] (2 kg/ha); 10C in [12] (2 kg/ha); 9C in assay [5] (2 kg/ha). For the same compound, the response rating in assay [7] (2 kg/ha), in assay [8] (2 kg/ha), in assay [13] (2 kg/ha) and in assay [10] (2 kg/ha) was 9C in each case.
`CCCCCCCCCCOC(=O)c1ccccc1S(=O)(=O)NC(=O)Nc1nc(OC)cc(OC)n1` [drawing 427]: the response rating in assay [2] (0.4 kg/ha) is reported as 2G; in assay [4] (0.4 kg/ha) it was 2G; in assay [12] (0.4 kg/ha), 1C; in assay [5] (0.4 kg/ha), 1H; in [7] (0.4 kg/ha), 9G; in assay [8] (0.4 kg/ha), 8G. The response rating in assay [9] (0.4 kg/ha) turned out to be 1C; in assay [13] (0.4 kg/ha), 1C; in [10] (0.4 kg/ha), 5G.
Consider `CCCCCCCCCCOC(=O)c1ccccc1S(=O)(=O)NC(=O)Nc1nc(OC)nc(OC)n1` [drawing 429], for which the response rating was 1C in assay [1] (0.4 kg/ha); 3G in assay [2] (0.4 kg/ha); 3G in assay [4] (0.4 kg/ha); 0 in [12] (0.4 kg/ha); 7G in assay [5] (0.4 kg/ha); 6H in [6] (0.4 kg/ha). The response rating in assay [7] (0.4 kg/ha) was found to be 7H; in assay [8] (0.4 kg/ha) it was 2G; in assay [13] (0.4 kg/ha), 0; in assay [10] (0.4 kg/ha), 5G.
Regarding `CCCCCCCCCCOC(=O)c1ccccc1S(=O)(=O)NC(=O)Nc1nc(C)nc(OC)n1` [drawing 430], the response rating in assay [1] (0.4 kg/ha) is reported as 2H; in [2] (0.4 kg/ha) it was 2G; in assay [4] (0.4 kg/ha) it was 0; in assay [12] (0.4 kg/ha) it was 0; in assay [5] (0.4 kg/ha), 6H; in [6] (0.4 kg/ha), 7H. The response rating in assay [8] (0.4 kg/ha) came out at 6G; in [13] (0.4 kg/ha) it was 0.
`COc1nc(NC(=O)NS(=O)(=O)c2ccccc2C(=O)OC2CCCCC2)nc(OC)n1` [drawing 432]: the response rating in [2] (0.4 kg/ha) is reported as 2G; in assay [4] (0.4 kg/ha), 0; in assay [12] (0.4 kg/ha), 0; in [6] (0.4 kg/ha), 6H; in assay [7] (0.4 kg/ha), 3G; in assay [8] (0.4 kg/ha) it was 2G. Moreover, the response rating in assay [13] (0.4 kg/ha) stood at 0; in [10] (0.4 kg/ha), 5C.
For the compound `CCCCOC(=O)c1ccccc1S(=O)(=O)NC(=O)Nc1nc(C)cc(OC)n1` [drawing 440], the response rating was 10C in [1] (0.4 kg/ha); 10C in assay [1] (2 kg/ha); 9C in assay [2] (2 kg/ha); 9C in assay [3] (0.4 kg/ha); 10C in assay [3] (2 kg/ha); 3G in assay [4] (0.4 kg/ha). For the same compound, the response rating in assay [12] (2 kg/ha) came out at 8C; in [5] (2 kg/ha), 9C; in assay [6] (2 kg/ha) it was 9C; in assay [7] (2 kg/ha), 9C; in assay [8] (2 kg/ha) it was 8C; in [9] (0.4 kg/ha), 9C. Further, the response rating in assay [9] (2 kg/ha) turned out to be 10C; in assay [13] (0.4 kg/ha), 8G; in [10] (2 kg/ha), 9C.
In the case of `Cc1cc(C)nc(NC(=O)NS(=O)(=O)c2ccccc2C(=O)O)n1` [drawing 444], the response rating is given as 2G in [1] (10 kg/ha); 2G in [4] (0.4 kg/ha); 1C in assay [5] (10 kg/ha); 3G in assay [7] (10 kg/ha); 5G in assay [8] (10 kg/ha).
As to `C=CCOC(=O)c1ccccc1S(=O)(=O)NC(=O)Nc1nc(C)nc(OC)n1` [drawing 451], the response rating came to 9C in assay [1] (0.4 kg/ha); 10C in assay [3] (0.4 kg/ha); 9C in assay [12] (0.4 kg/ha); 9C in assay [5] (0.4 kg/ha); 9C in [6] (0.4 kg/ha); 9C in assay [7] (0.4 kg/ha). In addition, the response rating is 9C in assay [8] (0.4 kg/ha); 10C in assay [9] (0.4 kg/ha); 9C in [13] (0.4 kg/ha); 9C in [10] (0.4 kg/ha); 9C in assay [11].
With `COC(=O)c1cc(Cl)c(Cl)cc1S(=O)(=O)NC(=O)Nc1nc(C)cc(OC)n1` [drawing 452], the response rating in assay [1] (0.4 kg/ha) was found to be 7H; in [2] (0.4 kg/ha) it was 6G; in assay [4] (0.4 kg/ha), 2G; in assay [12] (0.4 kg/ha), 0; in [6] (0.4 kg/ha), 2G; in [7] (0.4 kg/ha), 5G. Further, the figures for the response rating in assay [8] (0.4 kg/ha), in assay [13] (0.4 kg/ha) and in assay [10] (0.4 kg/ha) were 2C, 0 and 2C, respectively.
`COc1cc(C)nc(NC(=O)NS(=O)(=O)c2ccccc2C(=O)N(C)C)n1` [drawing 465]: the response rating in assay [1] (0.4 kg/ha) amounted to 10C; in assay [12] (0.4 kg/ha) it was 9C; in assay [5] (0.4 kg/ha), 9C; in [6] (0.4 kg/ha), 9C; in assay [7] (0.4 kg/ha), 9C; in assay [8] (0.4 kg/ha), 9C. In addition, the response rating is given as 10C in assay [9] (0.4 kg/ha), 9C in assay [13] (0.4 kg/ha) and 9C in assay [10] (0.4 kg/ha).
As to `COC(=O)c1ccccc1S(=O)(=O)NC(=O)Nc1nc(OC)cc(OC(C)C(=O)OC)n1` (stereo not shown) [drawing 468], the response rating in [1] (0.4 kg/ha), in assay [2] (0.4 kg/ha), in assay [4] (0.4 kg/ha), in [12] (0.4 kg/ha), in assay [5] (0.4 kg/ha) and in assay [6] (0.4 kg/ha) was 9C in each case. Further, the response rating in assay [7] (0.4 kg/ha), in [8] (0.4 kg/ha), in [9] (0.4 kg/ha), in assay [13] (0.4 kg/ha), in assay [10] (0.4 kg/ha) and in assay [11] was 9C each time.
On to `CCOCCSc1cc(C)nc(NC(=O)NS(=O)(=O)c2ccccc2C(=O)OC)n1` [drawing 469], for which the response rating in assay [2] (0.4 kg/ha) is on record as 8G; in [3] (0.4 kg/ha), 2C; in assay [12] (0.4 kg/ha), 6G; in assay [6] (0.4 kg/ha) it was 9H; in [7] (0.4 kg/ha), 9G; in assay [8] (0.4 kg/ha) it was 8G. The compound further registered a response rating in assay [11] of 9C.
With `COCCCOc1cc(C)nc(NC(=O)NS(=O)(=O)c2ccccc2C(=O)OC)n1` [drawing 470], the response rating in assay [1] (0.4 kg/ha) came to 9C; in assay [2] (0.4 kg/ha) it was 9C; in assay [4] (0.4 kg/ha), 9C; in assay [5] (0.4 kg/ha), 8C; in assay [6] (0.4 kg/ha), 9C; in assay [7] (0.4 kg/ha), 9C. The response rating is reported as 8C in [8] (0.4 kg/ha), 9C in [10] (0.4 kg/ha) and 9C in [11].
